# ChEMBL document CHEMBL4619793, “Pyrazolo[4,3-d]pyrimidine Derivatives as a Novel Hypoxia-Inducible Factor Prolyl Hydroxylase Domain Inhibitor for the Treatment of Anemia” (ACS Med Chem Lett, 2020)
# The source made the active and inactive calls. The calls are words filed in the database; no cut-off is given here.
# Tests used:
# [1] = system: Mus musculus; test: In vivo inhibition of HIF-PHD2 in ICR mouse assessed as serum erythropoietin level at 100 mg/kg, po administered as single dose measured after 6 hrs by immunoassay (reference value: 146 pg/ml); format: functional
# [2] = Solubility of the compound in buffer at pH 6.5; format: physicochemical
# [3] = system: Mus musculus; test: In vivo inhibition of HIF-PHD2 in ICR mouse assessed as serum erythropoietin level at 30 mg/kg, po administered as single dose measured after 6 hrs by immunoassay (reference value: 125 pg/ml); format: functional
# [4] = Total clearance in Sprague-Dawley rat at 0.5 mg/kg, iv; format: ADME, organism-based; details: in vivo
# [5] = Cmax in Sprague-Dawley rat at 0.5 mg/kg, iv; format: ADME, organism-based; parameters: dose 0.5 mg/kg, route intravenous; details: in vivo
# [6] = Volume of distribution at steady state in Sprague-Dawley rat at 0.5 mg/kg, iv; format: ADME, organism-based; details: in vivo, read-out: Vdss
# [7] = Cmax in Sprague-Dawley rat at 10 mg/kg, po; format: ADME, organism-based; parameters: dose 10 mg/kg, route oral; details: in vivo
# [8] = system: Mus musculus; test: In vivo inhibition of HIF-PHD2 in ICR mouse assessed as serum erythropoietin level at 10 mg/kg, po administered as single dose measured after 6 hrs by immunoassay (reference value: 125 pg/ml); format: functional
# [9] = Oral bioavailability in Sprague-Dawley rat at 10 mg/kg; format: ADME, organism-based; details: in vivo
# [10] = AUC (0 to infinity) in Sprague-Dawley rat at 10 mg/kg, po; format: ADME, organism-based; parameters: dose 10 mg/kg, time infinity, route oral; details: in vivo
# [11] = AUC (0 to infinity) in Sprague-Dawley rat at 0.5 mg/kg, iv; format: ADME, organism-based; parameters: dose 0.5 mg/kg, route intravenous, time infinity; details: in vivo
# [12] = Oral bioavailability in Sprague-Dawley rat at 1 mg/kg; format: ADME, organism-based; details: in vivo
# [13] = Cmax in Sprague-Dawley rat at 1 mg/kg, iv; format: ADME, organism-based; parameters: dose 1 mg/kg, route intravenous; details: in vivo
# [14] = AUC (0 to infinity) in Sprague-Dawley rat at 1 mg/kg, po; format: ADME, organism-based; parameters: dose 1 mg/kg, time infinity, route oral; details: in vivo
# [15] = Volume of distribution at steady state in Sprague-Dawley rat at 1 mg/kg, iv; format: ADME, organism-based; details: in vivo, read-out: Vdss
# [16] = system: Rattus norvegicus; test: Antianemic activity in kidney excised-induced renal anemia Sprague-Dawley rat model assessed as improvement in blood hemoglobin level at 1 mg/kg, po administered once daily for 4 weeks measured 2 week post initial dose; format: functional, organism-based
# [17] = Cmax in Sprague-Dawley rat at 1 mg/kg, po; format: ADME, organism-based; parameters: dose 1 mg/kg, route oral; details: in vivo
# [18] = Total clearance in Sprague-Dawley rat at 1 mg/kg, iv; format: ADME, organism-based; details: in vivo
# [19] = target: Egl nine homolog 1 (Rattus norvegicus) (UniProt P59722); test: In vivo inhibition of HIF-PHD2 in Sprague-Dawley rat assessed as increase in serum erythropoietin level at 10 mg/kg, po administered as single dose measured after 8 hrs by immunoassay; format: functional, organism-based
# [20] = AUC (0 to infinity) in Sprague-Dawley rat at 1 mg/kg, iv; format: ADME, organism-based; parameters: dose 1 mg/kg, time infinity, route intravenous; details: in vivo
# [21] = system: Rattus norvegicus; test: Antianemic activity in kidney excised-induced renal anemia Sprague-Dawley rat model assessed as improvement in blood hemoglobin level at 2 mg/kg, po administered once daily for 4 weeks measured 1 week post initial dose; format: functional, organism-based
# Egl nine homolog 1 (Rattus norvegicus), sequence (P59722 whole entry): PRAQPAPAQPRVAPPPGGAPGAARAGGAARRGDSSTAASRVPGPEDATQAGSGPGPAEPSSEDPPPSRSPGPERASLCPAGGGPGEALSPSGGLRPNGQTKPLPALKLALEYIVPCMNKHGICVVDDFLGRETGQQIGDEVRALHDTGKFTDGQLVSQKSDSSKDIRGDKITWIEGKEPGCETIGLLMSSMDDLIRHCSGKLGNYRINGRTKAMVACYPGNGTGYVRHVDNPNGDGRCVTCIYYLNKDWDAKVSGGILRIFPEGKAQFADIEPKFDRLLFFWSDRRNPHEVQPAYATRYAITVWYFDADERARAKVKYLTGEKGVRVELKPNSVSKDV
smiles,measurement,setting,value
O=C(O)c1cnn(-c2nc3cn(Cc4ccc(-c5ccccc5)cc4)nc3c(=O)[nH]2)c1,Activity,[1],450 pg/mL
O=C(O)c1cnn(-c2nc3cnn(Cc4ccc(Cl)c(Cl)c4)c3c(=O)[nH]2)c1,solubility,[2],88 µg/mL
O=C(O)c1cnn(-c2nc3cnn(Cc4ccc(-c5ccccc5)cc4)c3c(=O)[nH]2)c1,Activity,[3],89000 pg/mL
same,clearance,[4],1.52 mL/min/kg
same,Cmax,[5],4910 ng/mL
same,solubility,[2],9.5 µg/mL
same,Vd,[6],0.197 L/kg
same,Cmax,[7],2710 ng/mL
same,Activity,[8],63000 pg/mL
same,bioavailability,[9],16%
same,AUC(0-inf),[10],17800 ng·h/mL
same,AUC(0-inf),[11],5560 ng·h/mL
C[C@@H](c1ccc(Cl)c(Cl)c1)n1ncc2nc(-n3cc(C(=O)O)cn3)[nH]c(=O)c21,solubility,[2],75 µg/mL
O=C(O)c1cnn(-c2nc3cnn(Cc4ccc(-c5ccc(F)cc5)c(F)c4)c3c(=O)[nH]2)c1,solubility,[2],49 µg/mL
C[C@@H](c1cc(Cl)ccc1Cl)n1ncc2nc(-n3cc(C(=O)O)cn3)[nH]c(=O)c21,bioavailability,[12],77%
same,Cmax,[13],12400 ng/mL
same,AUC(0-inf),[14],23500 ng·h/mL
same,solubility,[2],> 1000 µg/mL
same,Vd,[15],0.249 L/kg
same,Activity,[16],Active
same,Cmax,[17],1840 ng/mL
same,clearance,[18],0.567 mL/min/kg
same,inhibition,[19],Active
same,AUC(0-inf),[20],30400 ng·h/mL
same,Activity,[21],Active
